The values below come from ChEMBL document CHEMBL1201862, “PubChem BioAssay data set” (2004).

The term IC50 denotes the concentration that gives 50% inhibition. A word on the CC50: it is the concentration at which the toxic effect on the cells reaches its halfway point. By GI50 is commonly meant the concentration that inhibits growth by half.

The subject of one test is H9c2. Put plainly: cells. The conditions noted are these: Rattus norvegicus, H9c2, Myocardium. Format: functional, cell-based.
The nature of test [1]: viability of uninfected HEp-2 cells – cell-based, HTS, cytotoxicity control for RSV inhibitor project, dose response (AID 2410). As to conditions: human respiratory syncytial virus. The test is classed as functional.
For test [2], the target named is T1, Sentrin-specific protease 6 (Homo sapiens, UniProt Q9GZR1).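 Further: Luminescence-based dose-response confirmatory assay of SENP6 inhibition, following up an ultra-high-throughput screen.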
T1 sequence (Q9GZR1 whole entry): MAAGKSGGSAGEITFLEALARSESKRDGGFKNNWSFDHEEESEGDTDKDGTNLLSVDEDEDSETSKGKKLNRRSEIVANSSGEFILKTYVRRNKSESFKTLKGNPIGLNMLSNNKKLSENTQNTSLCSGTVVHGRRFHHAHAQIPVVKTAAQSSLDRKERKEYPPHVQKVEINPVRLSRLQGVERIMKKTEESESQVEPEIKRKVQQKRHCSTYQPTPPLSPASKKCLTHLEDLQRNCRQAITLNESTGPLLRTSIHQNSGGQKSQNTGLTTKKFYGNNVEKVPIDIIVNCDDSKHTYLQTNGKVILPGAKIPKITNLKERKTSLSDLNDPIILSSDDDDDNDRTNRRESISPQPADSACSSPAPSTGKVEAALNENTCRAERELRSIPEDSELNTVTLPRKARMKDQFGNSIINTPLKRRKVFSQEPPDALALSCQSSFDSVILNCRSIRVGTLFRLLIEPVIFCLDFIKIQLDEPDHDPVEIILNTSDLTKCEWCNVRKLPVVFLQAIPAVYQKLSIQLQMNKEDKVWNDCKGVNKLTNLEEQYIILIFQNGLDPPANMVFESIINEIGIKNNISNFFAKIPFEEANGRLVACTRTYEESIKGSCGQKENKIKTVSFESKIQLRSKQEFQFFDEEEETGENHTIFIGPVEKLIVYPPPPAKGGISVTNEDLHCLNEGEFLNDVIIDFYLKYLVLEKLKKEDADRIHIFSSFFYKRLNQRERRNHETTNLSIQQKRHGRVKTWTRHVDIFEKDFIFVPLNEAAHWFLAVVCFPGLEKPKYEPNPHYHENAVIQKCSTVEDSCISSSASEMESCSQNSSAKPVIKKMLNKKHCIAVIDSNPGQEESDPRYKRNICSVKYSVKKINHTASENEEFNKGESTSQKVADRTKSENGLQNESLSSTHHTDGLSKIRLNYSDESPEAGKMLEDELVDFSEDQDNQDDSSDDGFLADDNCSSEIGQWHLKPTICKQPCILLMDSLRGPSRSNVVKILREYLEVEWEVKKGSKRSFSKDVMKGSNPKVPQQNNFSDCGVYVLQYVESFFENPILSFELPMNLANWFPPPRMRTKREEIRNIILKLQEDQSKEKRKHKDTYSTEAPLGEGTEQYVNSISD
Format: functional.

Test [3] concerns the target T2, Sentrin-specific protease 7 (Homo sapiens, UniProt Q9BQF6).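 Further: Luminescence-based dose-response confirmation of ultra-high-throughput screening hits, measuring inhibition of SENP7.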
T2 sequence (Q9BQF6 whole entry): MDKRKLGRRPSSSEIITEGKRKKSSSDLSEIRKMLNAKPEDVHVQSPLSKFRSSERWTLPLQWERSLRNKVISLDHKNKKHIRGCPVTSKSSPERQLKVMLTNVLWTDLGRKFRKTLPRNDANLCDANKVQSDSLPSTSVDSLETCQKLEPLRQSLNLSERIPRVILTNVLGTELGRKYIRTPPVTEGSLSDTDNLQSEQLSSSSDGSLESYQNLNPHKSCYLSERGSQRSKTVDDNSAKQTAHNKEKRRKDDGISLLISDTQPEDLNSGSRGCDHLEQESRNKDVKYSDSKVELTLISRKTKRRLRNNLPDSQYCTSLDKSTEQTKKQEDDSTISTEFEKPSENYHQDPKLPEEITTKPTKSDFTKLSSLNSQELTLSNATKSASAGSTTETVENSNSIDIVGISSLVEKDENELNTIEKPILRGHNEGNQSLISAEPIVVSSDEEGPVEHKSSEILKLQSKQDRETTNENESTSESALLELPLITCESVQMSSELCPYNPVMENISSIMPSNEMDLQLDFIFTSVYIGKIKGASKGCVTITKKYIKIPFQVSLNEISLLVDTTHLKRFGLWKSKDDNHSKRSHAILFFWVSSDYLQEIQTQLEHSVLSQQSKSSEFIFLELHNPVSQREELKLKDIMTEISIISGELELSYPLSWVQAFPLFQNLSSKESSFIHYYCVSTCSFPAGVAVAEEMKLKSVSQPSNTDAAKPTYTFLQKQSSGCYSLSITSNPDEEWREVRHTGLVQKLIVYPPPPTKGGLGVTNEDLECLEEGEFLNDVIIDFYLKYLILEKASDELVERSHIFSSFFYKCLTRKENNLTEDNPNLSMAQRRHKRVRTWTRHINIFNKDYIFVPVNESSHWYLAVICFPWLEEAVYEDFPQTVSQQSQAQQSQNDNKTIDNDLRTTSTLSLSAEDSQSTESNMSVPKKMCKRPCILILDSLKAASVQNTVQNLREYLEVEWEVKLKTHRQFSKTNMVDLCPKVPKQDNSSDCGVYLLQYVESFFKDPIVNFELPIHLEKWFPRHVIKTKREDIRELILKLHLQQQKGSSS
The test is classed as functional.

The next test addresses T3, Caspase-3 (Homo sapiens, UniProt P42574).
T3 sequence (P42574 whole entry): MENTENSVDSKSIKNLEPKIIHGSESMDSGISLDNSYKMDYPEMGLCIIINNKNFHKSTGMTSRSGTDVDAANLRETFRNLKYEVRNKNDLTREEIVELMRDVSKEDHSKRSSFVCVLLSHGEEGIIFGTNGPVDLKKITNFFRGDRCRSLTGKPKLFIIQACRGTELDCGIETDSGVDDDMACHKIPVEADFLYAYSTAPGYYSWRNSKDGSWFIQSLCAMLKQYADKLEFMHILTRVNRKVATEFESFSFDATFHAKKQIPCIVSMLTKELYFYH
Format: functional.

Test [4] concerns the target T4, Sentrin-specific protease 8 (Homo sapiens, UniProt Q96LD8).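 Further: luminescence read-out of SENP8 inhibition, dose-response confirmation following an ultra-high-throughput screen.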
T4 sequence (Q96LD8 whole entry): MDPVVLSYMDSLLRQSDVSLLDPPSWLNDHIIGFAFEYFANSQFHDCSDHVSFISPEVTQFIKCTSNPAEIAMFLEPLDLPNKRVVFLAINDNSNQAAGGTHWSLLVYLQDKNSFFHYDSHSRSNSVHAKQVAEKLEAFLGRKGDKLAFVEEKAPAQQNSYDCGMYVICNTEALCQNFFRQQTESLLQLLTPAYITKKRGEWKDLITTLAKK
Format: functional.

Another test has as its system SN12K1. In words: cells. Format: functional. As to conditions: Homo sapiens.
The next test concerns P388/ADR. In words: cells. Format: functional. The conditions noted are these: Mus musculus.
In another test the test system is P388. Put plainly: cells. Format: functional. The conditions noted are these: Mus musculus.
In test [5] the target is T5, Rac GTPase-activating protein 1 (Homo sapiens, UniProt Q9H0H5).
T5 sequence (Q9H0H5 whole entry): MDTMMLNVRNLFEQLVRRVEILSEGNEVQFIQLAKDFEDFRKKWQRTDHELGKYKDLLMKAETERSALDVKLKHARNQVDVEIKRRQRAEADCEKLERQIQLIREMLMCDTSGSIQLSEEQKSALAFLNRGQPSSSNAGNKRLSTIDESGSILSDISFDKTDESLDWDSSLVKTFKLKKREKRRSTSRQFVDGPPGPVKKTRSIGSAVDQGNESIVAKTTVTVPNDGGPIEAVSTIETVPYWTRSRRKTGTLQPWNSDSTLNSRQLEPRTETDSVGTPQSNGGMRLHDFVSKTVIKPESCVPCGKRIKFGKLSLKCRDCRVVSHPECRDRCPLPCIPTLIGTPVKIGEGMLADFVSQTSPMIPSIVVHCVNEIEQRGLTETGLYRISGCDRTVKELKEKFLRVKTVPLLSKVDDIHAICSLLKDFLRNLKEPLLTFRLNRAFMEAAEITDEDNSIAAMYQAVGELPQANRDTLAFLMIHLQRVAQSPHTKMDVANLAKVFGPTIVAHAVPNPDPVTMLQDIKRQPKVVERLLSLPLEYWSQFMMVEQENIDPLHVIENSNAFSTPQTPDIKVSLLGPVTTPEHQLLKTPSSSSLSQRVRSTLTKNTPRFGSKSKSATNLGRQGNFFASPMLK
In words: blockers of MgcRacGAP-driven Rac1 GTP hydrolysis – biochemical, ADP Hunter fluorescence, primary and confirmatory, confirmation (AID 624330). The test is classed as functional.

The test system of a further test is Vero. In words: viability of Vero cells under compound – cytotoxicity control for flavivirus capping enzyme inhibitors (AID 588742). The test is classed as functional. The conditions noted are these: Chlorocebus sabaeus.
The target of test [6] is T6, Mannose-6-phosphate isomerase (Homo sapiens, UniProt P34949).
T6 sequence (P34949 whole entry): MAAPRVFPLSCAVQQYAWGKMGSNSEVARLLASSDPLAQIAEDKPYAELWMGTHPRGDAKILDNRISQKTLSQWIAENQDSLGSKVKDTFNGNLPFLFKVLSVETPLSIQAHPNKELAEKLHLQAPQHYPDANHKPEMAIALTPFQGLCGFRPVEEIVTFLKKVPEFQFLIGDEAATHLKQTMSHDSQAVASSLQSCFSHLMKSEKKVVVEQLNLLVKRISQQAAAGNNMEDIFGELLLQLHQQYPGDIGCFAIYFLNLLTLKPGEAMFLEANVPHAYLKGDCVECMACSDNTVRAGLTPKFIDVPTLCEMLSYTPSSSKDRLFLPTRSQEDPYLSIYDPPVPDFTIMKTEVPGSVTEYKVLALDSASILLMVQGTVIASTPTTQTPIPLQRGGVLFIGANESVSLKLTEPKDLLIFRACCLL
In words: MPI inhibition at elevated mannose 6-phosphate – biochemical, fluorescence intensity, high mannose 6-phosphate, primary screen (AID 1220).

The source made the active and inactive calls.

Regarding `c1cncc(-c2nc(NCC3COc4ccccc4O3)c3ccccc3n2)c1` (stereo unspecified), the IC50 with H9c2 was > 79 µM (inactive). Moreover, in test [1], the CC50 is 10.2 µM (active).
Regarding `Cc1ccc(C(=O)COC(=O)c2ccc(Cl)c(N)c2)s1`, the IC50 is 17.4 µM (active) in test [2], 5.51 µM (active) in test [3], 15 µM (active) on Caspase-3 and 23.1 µM (active) in test [4].
Regarding `O=C(/C=C/c1ccc(Cl)c([N+](=O)[O-])c1)Nc1cccnc1`, the IC50 in the test on H9c2 is > 79 µM (inactive).
The same measure, in the same setting: under `COc1ccc(Cl)cc1NC(=O)CCS(=O)(=O)c1cc2c(cc1C)NC(=O)CO2` stands > 79 µM (inactive); under `O=C(CN1CCN(Cc2ccccc2)CC1)Nc1ccc([N+](=O)[O-])cc1C(=O)Nc1ccccc1F`, > 79 µM (inactive).
On to `O=C(Nc1ccc(C2=NCCN2)cc1)c1cncc(C(=O)Nc2ccc(C3=NCCN3)cc2)c1`, for which the GI50 with SN12K1 is > 100 µM (inactive); in the test on P388/ADR, > 100 µM (inactive); in the test with P388 it was 24.2 µM (inactive).
As to `CCC1CN2CCC1CC2` (stereo unspecified), the results for the GI50 in the test on SN12K1, in the test on P388/ADR and in the test with P388 were > 100 µM (inactive), > 100 µM (inactive) and 80.4 µM (inactive), respectively.
In the case of `COc1ccc(C(=O)O/N=C(/c2ccccc2)c2ccncc2)cc1OC`, the IC50 in the test on H9c2 is 6.72 µM (active).
Take `C[C@H]1[C@@H]2C[C@@H]3O[C@@]34[C@H]3CCC5Cc6nc7c(nc6C[C@@]5(C)[C@]3(O)CC(=O)[C@@]24CO[C@]12OC(C)(C)C[C@@H]2O)CC1CC[C@@H]2C3=C[C@H]4O[C@@]5(OC(C)(CO)C[C@@H]5O)[C@H](C)[C@@]4(O)[C@]3(C)[C@@H](O)CC2[C@]1(C)C7` (stereo partly specified): the GI50 in the test on SN12K1 was 0.00221 µM (active); with P388/ADR it was 0.0718 µM (active); in the test with P388, 0.0017 µM (active).
Take `COc1ccc2c(c1)-c1nc(/N=C/c3ccccc3O)sc1CC2`: the IC50 in [5] is 20 µM (active); in test [6], > 50 µM (not active). Also, the CC50 in the test with Vero is > 40 µM (active).
For `COC(=O)[C@@H]1c2cc3c(c(O)c2[C@@H](OC)C[C@@]1(C)O)C(=O)c1c(O)cc2c(c1C3=O)OC1O[C@@]2(C)[C@H](O)[C@@H](N(C)C)[C@@H]1O`, the figures for the GI50 with SN12K1, in the test on P388/ADR and in the test on P388 were 0.352 µM (active), 1.29 µM (inactive) and 0.092 µM (active), respectively.
As to `Cn1c2ccccc2c(=O)c2c(O)cc3c(c21)C=CC(C)(C)O3` [NORACRONYCINE], the GI50 with SN12K1, with P388/ADR and in the test with P388 was > 25 µM (inactive) throughout.
`O=C(O)CCCCCCCCC(=O)O` [SEBACIC ACID]: the values for the GI50 in the test on SN12K1, in the test on P388/ADR and with P388 were > 500 µM (inactive), > 500 µM (inactive) and 316 µM (inactive), respectively.
